Converted amounts (≈) assume the structure as drawn.
What was measured:
S. aureus Newman [1] = test: fitness (endpoint OD595 vs no drug) (fraction); higher = more growth
Outline: (§1)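 Volumes were 30 µl per well, or 55 µl for S. pneumoniae, in 384-well plates inoculated at OD595 0.01. Media were TSB, LB Lennox or CY at 37 °C, and OD595 was read every 30 min for 14 h with first-reading background subtraction. Fitness is the ratio of optical density at stationary-phase entry to the robust mean of no-drug controls. That ratio is capped at 1.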

B. subtilis 168 [2] = test: as above
Outline: as §1

S. aureus DSM 20231 [3] = system: S. aureus DSM 20231
S. aureus Newman [4] = system: S. aureus Newman
S. pneumoniae D39V [5] = system: S. pneumoniae D39V
S. aureus DSM 20231 [6] = test: fitness (endpoint OD595 vs no drug) (fraction); higher = more growth
Outline: as §1

S. pneumoniae D39V [7] = test: as above
Outline: as §1

B. subtilis 168 [8] = system: B. subtilis 168
S. aureus DSM 20231 [9] = test: Bliss interaction score (quartile over a dose matrix) (fitness difference); higher = more antagonism (negative = synergy)
Outline: (§2)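 The Bliss score is observed minus expected fitness, where expected fitness is the product of the single-drug fitness values inferred from the combination data. Fitness is the OD595 at the onset of stationary phase over the plate's robust no-drug mean, capped at 1. Scores are summarised by quartiles over technical, biological and donor/recipient replicates.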

S. aureus Newman [10] = test: as above
Outline: as §2

B. subtilis 168 [11] = test: as above
Outline: as §2

S. pneumoniae D39V [12] = test: as above
Outline: as §2
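For Bliss interaction score (quartile over a dose matrix) in this document: first quartile when negative (synergy) and third quartile when positive (antagonism).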

CC[C@H]1OC(=O)[C@H](C)[C@@H](O[C@H]2C[C@@](C)(OC)[C@@H](O)[C@H](C)O2)[C@H](C)[C@@H](O[C@@H]2O[C@H](C)C[C@H](N(C)C)[C@H]2O)[C@](C)(O)C[C@@H](C)C(=O)[C@H](C)[C@@H](O)[C@]1(C)O [Erythromycin]
fitness
Details	0.0312 µg/mL	0.0625 µg/mL	0.125 µg/mL	0.25 µg/mL	0.5 µg/mL
B. subtilis 168 [2]	0.926	0.704	0.0499	0.0212	–
S. aureus Newman [1]	0.964	0.889	0.594	0.111	0.0101

Details	MIC [µg/mL]
S. aureus DSM 20231 [3]	0.5 (≈ 0.681 µM)
S. aureus Newman [4]	0.5 (≈ 0.681 µM)
S. pneumoniae D39V [5]	0.123 (≈ 0.168 µM)

CC(=O)NC[C@H]1CN(c2ccc(N3CCOCC3)c(F)c2)C(=O)O1 [Linezolid]
fitness
Details	0.125 µg/mL	0.2 µg/mL	0.25 µg/mL	0.4 µg/mL	0.5 µg/mL	0.8 µg/mL
B. subtilis 168 [2]	0.722	–	0.239	–	0.0555	–
S. aureus DSM 20231 [6]	0.923	–	0.648	–	0.16	–
S. pneumoniae D39V [7]	–	0.665	–	0.412	–	0.227

Details	MIC [µg/mL]
B. subtilis 168 [8]	0.5 (≈ 1.48 µM)

CC(=O)NC[C@H]1CN(c2ccc(N3CCOCC3)c(F)c2)C(=O)O1 [Linezolid] + CN[C@@H]1[C@H](O)[C@H](NC)[C@H]2O[C@@]3(O)C(=O)C[C@@H](C)O[C@H]3O[C@@H]2[C@H]1O [Spectinomycin]
fitness
Details	partner 2 µg/mL	partner 4 µg/mL	partner 8 µg/mL	partner 16 µg/mL
B. subtilis 168 [2], first compound 0.125 µg/mL	0.507	0.426	0.336	–
B. subtilis 168 [2], first compound 0.25 µg/mL	–	0.0516	0.0689	–
B. subtilis 168 [2], first compound 0.5 µg/mL	0.0491	0.039	0.0208	–
S. aureus DSM 20231 [6], first compound 0.125 µg/mL	–	0.857	0.838	0.702
S. aureus DSM 20231 [6], first compound 0.25 µg/mL	–	0.547	0.458	0.419
S. aureus DSM 20231 [6], first compound 0.5 µg/mL	–	0.156	0.119	0.175
S. pneumoniae D39V [7], first compound 0.105 µg/mL	–	0.767	0.73	0.694
S. pneumoniae D39V [7], first compound 0.21 µg/mL	–	0.663	0.662	0.582
S. pneumoniae D39V [7], first compound 0.42 µg/mL	–	0.454	0.343	0.284

one replicate
Details	fitness
B. subtilis 168 [2], first compound 0.0625 µg/mL, partner 2 µg/mL	0.893
B. subtilis 168 [2], first compound 0.0625 µg/mL, partner 4 µg/mL	0.814
B. subtilis 168 [2], first compound 0.0625 µg/mL, partner 8 µg/mL	0.654
S. aureus DSM 20231 [6], first compound 0.125 µg/mL, partner 32 µg/mL	0.472
S. aureus DSM 20231 [6], first compound 0.125 µg/mL, partner 64 µg/mL	0.0532
S. aureus DSM 20231 [6], first compound 0.25 µg/mL, partner 32 µg/mL	0.341
S. aureus DSM 20231 [6], first compound 0.25 µg/mL, partner 64 µg/mL	0.037
S. aureus DSM 20231 [6], first compound 0.5 µg/mL, partner 32 µg/mL	0.135
S. aureus DSM 20231 [6], first compound 0.5 µg/mL, partner 64 µg/mL	0.0476
S. aureus DSM 20231 [6], first compound 1 µg/mL, partner 4 µg/mL	0.0244
S. aureus DSM 20231 [6], first compound 1 µg/mL, partner 8 µg/mL	0.0183
S. aureus DSM 20231 [6], first compound 1 µg/mL, partner 16 µg/mL	0.009
S. pneumoniae D39V [7], first compound 0.2 µg/mL, partner 4 µg/mL	0.8
S. pneumoniae D39V [7], first compound 0.2 µg/mL, partner 8 µg/mL	0.769
S. pneumoniae D39V [7], first compound 0.4 µg/mL, partner 4 µg/mL	0.633
S. pneumoniae D39V [7], first compound 0.4 µg/mL, partner 8 µg/mL	0.659
S. pneumoniae D39V [7], first compound 0.8 µg/mL, partner 4 µg/mL	0.271
S. pneumoniae D39V [7], first compound 0.8 µg/mL, partner 8 µg/mL	0.302

Details	Bliss interaction score
B. subtilis 168 [11]	-0.0551
S. aureus DSM 20231 [9]	-0.0609
S. aureus Newman [10]	-0.12
S. pneumoniae D39V [12]	-0.134

From the supplement of paper PMC10627819
